# Where “and” joins values, the source holds several entries; their conditions need not be identical. Equal values may be shown once.
# Assays:
# AGTACT = assay: DNase I footprint titration, AGTACT site; assay type: binding; details: equilibrium association constant Ka; pH 7.0, 22° C.
# ACTACT = assay: DNase I footprint titration, ACTACT site; assay type: binding; details: equilibrium association constant Ka; pH 7.0, 22° C.
# ATTACT = assay: DNase I footprint titration, ATTACT site; assay type: binding; details: equilibrium association constant Ka; pH 7.0, 22° C.
# AATACT = assay: DNase I footprint titration, AATACT site; assay type: binding; details: equilibrium association constant Ka; pH 7.0, 22° C.
# [1] = system: Staphylococcus aureus (29213); assay: MIC, NCCLS broth microdilution; assay type: cell-based; details: Staphylococcus aureus (29213)
# [2] = system: Staphylococcus aureus (33591) (methicillin resistant); assay: MIC, NCCLS broth microdilution; assay type: cell-based; details: Staphylococcus aureus (33591), methicillin resistant (MRSA)
# [3] = system: Staphylococcus epidermidis (12228); assay: MIC, NCCLS broth microdilution; assay type: cell-based; details: Staphylococcus epidermidis (12228)
# [4] = system: Enterococcus faecalis (29212); assay: MIC, NCCLS broth microdilution; assay type: cell-based; details: Enterococcus faecalis (29212)
# [5] = system: Enterococcus faecium (51559) (vacomycin resistant); assay: MIC, NCCLS broth microdilution; assay type: cell-based; details: Enterococcus faecium (51559), vancomycin resistant
# [6] = system: Streptococcus pneumoniae (49619); assay: MIC, NCCLS broth microdilution; assay type: cell-based; details: Streptococcus pneumoniae (49619)
# [7] = system: Streptococcus pneumoniae (51422) (multiple drug resistant); assay: MIC, NCCLS broth microdilution; assay type: cell-based
# [8] = system: Streptococcus pyogenes (49339); assay: MIC, NCCLS broth microdilution; assay type: cell-based; details: Streptococcus pyogenes (49339); Table Ia: Streptococcus Group A(49339)
# [9] = system: Listeria monocytogenes (19115); assay: MIC, NCCLS broth microdilution; assay type: cell-based
# Bacillus anthracis = assay type: cell-based
# Bacillus subtilis (6633) [10] = assay: MIC, NCCLS broth microdilution; assay type: cell-based; details: Bacillus subtilis (6633)
# Bacillus cereus (11778) [11] = assay: MIC, NCCLS broth microdilution; assay type: cell-based; details: Bacillus cereus (11778)
# [12] = system: Corynebacterium Group A (49676); assay: MIC, NCCLS broth microdilution; assay type: cell-based; details: Corynebacterium Group A (49676)
# [13] = system: Propionibacterium acnes (33179); assay: MIC, NCCLS broth microdilution; assay type: cell-based; details: anaerobe
# [14] = system: Clostridium perfringens (13124); assay: microbe, parasite or virus in culture; assay type: cell-based; details: Clostridium perfringens (13124), anaerobe
# [15] = system: Peptostreptococcus asaccharolytics (29743); assay: MIC, NCCLS broth microdilution; assay type: cell-based; details: anaerobe
# [16] = system: Haemophilus influenzae (49247); assay: MIC, NCCLS broth microdilution; assay type: cell-based; details: Haemophilus influenzae (49247)
# Esherichia coli (25922) = assay: MIC, NCCLS broth microdilution; assay type: cell-based, Escherichia coli; details: Escherichia coli (25922)
# [17] = system: Pseudomona aeruginosa (27853); assay: MIC, NCCLS broth microdilution; assay type: cell-based; details: Pseudomona aeruginosa (27853)
# Candida albicans (90028) [18] = assay: MIC, antifungal assay; assay type: cell-based
# [19] = system: Candida albicans (38247) (Polyene resistant); assay: MIC, antifungal assay; assay type: cell-based
# [20] = system: Saccharomyces cerevisiae (44773); assay: MIC, antifungal assay; assay type: cell-based
# [21] = system: Aspergillus niger (10535); assay: MIC, antifungal assay; assay type: cell-based
# Fusarium solani (36031) = assay: MIC, antifungal assay; assay type: cell-based
# [22] = system: Paecilomyces variotii (22319); assay: MIC, antifungal assay; assay type: cell-based
# [23] = system: Trichophyto tonsurans (28942); assay: MIC, antifungal assay; assay type: cell-based
# [24] = system: Staphylococcus aureus (29213); assay: MBC according to NCCLS guideline; assay type: cell-based
# [25] = system: Enterococcus faecalis (29212); assay: MBC according to NCCLS guideline; assay type: cell-based
# [26] = system: Streptococcus pneumoniae (49619); assay: MBC according to NCCLS guideline; assay type: cell-based
# Bacillus cereus (11778) [27] = assay: MBC according to NCCLS guideline; assay type: cell-based
# Candida albicans (90028) [28] = assay: MBC according to NCCLS guideline; assay type: cell-based
# [29] = system: Saccharomyces cerevisiae (44773); assay: MBC according to NCCLS guideline; assay type: cell-based
# all species tested = assay: Microbicidal activity (MIC versus MBC), all species tested; assay type: cell-based; details: in words; from difference between MICs and MBCs
# Description: The minimal bactericidal concentration (MBC) has been determined for some of these designed compounds according to NCCLS guideline (Lorian, V. 1996 Antibiotics in laboratory medicine (The Williams & Wilkins Co., Baltimore, Md.)). The difference between the MICs and the MBCs has been established as an index of the bactericidal activity of an antibiotic.
# [30] = system: different species of bacteria and fungi; details: exception: Gram-negative bacteria such as Escherichia and Pseudomonas
# [31] = system: Staphylococcus aureus (33591) (methicillin resistant)
# [32] = system: Staphylococcus epidermidis (12228)
# [33] = system: Enterococcus faecium (51559) (vacomycin resistant); details: vancomycin resistant
# [34] = system: Streptococcus pyogenes (49339)
# Bacillus subtilis (6633) [35] = system: Bacillus subtilis (6633)
# [36] = system: Corynebacterium Group A (49676)
# [37] = system: Propionibacterium acnes (33179)
# [38] = system: Clostridium perfringens (13124)
# [39] = system: Peptostreptococcus asaccharolytics (29743)
# TGGTCA = details: equilibrium association constant Ka; pH 7.0, 22° C.
smiles,measurement,setting,value
CN(C)CCCNC(=O)c1cc(NC(=O)c2cc(NC(=O)c3cc(NC(=O)c4nsc(NCCCCN)c4Cl)cn3C)cn2C)cn1C [V-a],"Binding Constant, sequence AGTACT",AGTACT,3e+09 M⁻¹
same,"Binding Constant, sequence ACTACT",ACTACT,1e+08 M⁻¹
same,"Binding Constant, sequence ATTACT",ATTACT,1e+08 M⁻¹
same,"Binding Constant, sequence AATACT",AATACT,1e+08 M⁻¹
same,MIC,[1],2 µg/mL
same,MIC,[2],2 µg/mL
same,MIC,[3],1 µg/mL
same,MIC,[4],1 µg/mL
same,MIC,[5],1 µg/mL
same,MIC,[6],0.5 µg/mL
same,MIC,[7],8 µg/mL
same,MIC,[8],0.125 µg/mL
same,MIC,[9],4 µg/mL
same,MIC,Bacillus anthracis,4 µg/mL
same,MIC,Bacillus subtilis (6633) [10],0.25 µg/mL and 0.25 to 0.5 µg/mL
same,MIC,Bacillus cereus (11778) [11],0.25 µg/mL
same,MIC,[12],0.25 µg/mL and 0.25 to 0.5 µg/mL
same,MIC,[13],2 µg/mL and 4 µg/mL
same,MIC,[14],1 µg/mL
same,MIC,[15],0.125 µg/mL
same,MIC,[16],32 µg/mL
same,MIC,Esherichia coli (25922),>128 µg/mL
same,MIC,[17],>128 µg/mL
same,MIC,Candida albicans (90028) [18],4 µg/mL
same,MIC,[19],4 µg/mL
same,MIC,[20],8 µg/mL
same,MIC,[21],2 µg/mL
same,MIC,Fusarium solani (36031),4 µg/mL
same,MIC,[22],0.5 µg/mL
same,MIC,[23],16 µg/mL
same,MBC,[24],2 µg/mL
same,MBC,[25],>4 µg/mL
same,MBC,[26],0.5 µg/mL
same,MBC,Bacillus cereus (11778) [27],0.5 µg/mL
same,MBC,Candida albicans (90028) [28],4 µg/mL
same,MBC,[29],8 µg/mL
same,Microbicidal activity,all species tested,microbicidal agents for all species tested
same,MIC for most species tested,[30],less than 8 μg/mL
same,MBC,[31],4 µg/mL
same,MBC,[32],1 µg/mL
same,MBC,[33],2 to 4 µg/mL
same,MBC,[34],0.125 µg/mL
same,MBC,Bacillus subtilis (6633) [35],0.5 µg/mL
same,MBC,Micrococcus luteus (381),0.5 µg/mL
same,MBC,[36],0.25 µg/mL
same,MBC,[37],8 µg/mL
same,MBC,[38],2 µg/mL
same,MBC,[39],0.25 µg/mL
CN(C)CCCNC(=O)c1cc(NC(=O)c2cc(NC(=O)c3cc(NC(=O)c4nsc(NCCCN)c4Cl)cn3C)cn2C)cn1C [V-b],"Binding Constant, sequence AGTACT",AGTACT,3e+09 M⁻¹
same,"Binding Constant, sequence ACTACT",ACTACT,2e+08 M⁻¹
same,"Binding Constant, sequence ATTACT",ATTACT,1e+08 M⁻¹
same,"Binding Constant, sequence AATACT",AATACT,1e+08 M⁻¹
same,MIC,[1],2 µg/mL
same,MIC,[2],4 µg/mL
same,MIC,[3],2 µg/mL
same,MIC,[4],1 µg/mL
same,MIC,[5],2 to 4 µg/mL
same,MIC,[6],0.5 µg/mL
same,MIC,[7],1 µg/mL
same,MIC,[8],0.25 µg/mL
same,MIC,[9],8 µg/mL
same,MIC,Bacillus anthracis,32 µg/mL
same,MIC,Bacillus subtilis (6633) [10],0.5 to 1 µg/mL
same,MIC,Bacillus cereus (11778) [11],0.5 µg/mL
same,MIC,[12],0.5 µg/mL
same,MIC,[13],4 µg/mL
same,MIC,[14],1 µg/mL
same,MIC,[15],0.125 µg/mL
same,MIC,[16],32 µg/mL
same,MIC,Esherichia coli (25922),>128 µg/mL
same,MIC,[17],>128 µg/mL
same,MIC,Candida albicans (90028) [18],4 µg/mL
same,MIC,[20],16 µg/mL
same,MIC,[21],4 µg/mL
same,MIC,Fusarium solani (36031),4 to 8 µg/mL
same,MIC,[22],0.5 µg/mL
same,MIC,[23],16 µg/mL
same,MBC,[24],4 µg/mL
same,MBC,[25],>4 µg/mL
same,MBC,[26],0.5 µg/mL
same,MBC,Bacillus cereus (11778) [27],0.5 µg/mL
same,MBC,Candida albicans (90028) [28],4 µg/mL
same,MBC,[29],16 µg/mL
same,Microbicidal activity,all species tested,microbicidal agents for all species tested
CN(C)CCCNC(=O)CCNC(=O)c1cc(NC(=O)c2cc(NC(=O)c3cc(NC(=O)c4cc(NC(=O)c5nsc(Cl)c5Cl)cn4C)cn3C)cn2C)cn1C [V-t],"Binding Constant, sequence AGTACT",AGTACT,2e+08 M⁻¹
same,"Binding Constant, sequence ACTACT",ACTACT,2e+08 M⁻¹
same,"Binding Constant, sequence ATTACT",ATTACT,2e+08 M⁻¹
same,"Binding Constant, sequence AATACT",AATACT,2e+08 M⁻¹
same,"Binding Constant, sequence TGGTCA",TGGTCA,1e+10 M⁻¹

# Source: US20020065227A1, “Charged compounds comprising a nucleic acid binding moiety and uses therefor” (priority 2000, published 2002)
